Experimental data: patent US20230346734A1, “COMBINATION THERAPY OF ATRA OR OTHER RETINOIDS WITH IMMUNOTHERAPEUTIC AGENTS BINDING TO BCMA” (JULIUS-MAXIMILIANS-UNIVERSITÄT WÜRZBURG, priority 2020, published 2023)

Columns and labels:
[1] = system: BCMA-CAR T-cells co-incubated with MM.1S; assay: Proliferation of CFSE-labeled BCMA-CAR T-cells after stimulation with pretreated MM.1S; format: cell-based, human; details: MM.1S pretreated 72 hours with 100 nM ATRA and/or 0.01 uM GSI; CFSE after three days
Protocol: MM.1S were incubated with 100 nM ATRA and/or 0.01 uM GSI for 72 hours or were left untreated. Afterwards, CFSE-labeled BCMA-CAR T-cells were co-incubated with these target cells. Proliferative capacity of BCMA-CAR T-cells was determined after three days by measuring the reduction of CFSE-labeling in effector cells. Data are presented as mean values+SD of n=3 independent experiments.
(§1) Cytolytic activity was analyzed in a bioluminescence-based assay using firefly-luciferase (ffluc)-transduced target cells. Proliferation was measured by dilution of CFSE proliferation dye by flow cytometry. Therefore, CFSE-labeled CAR T-cells were incubated with target cells for 72 h at a 4:1 effector to target cell ratio. IFNγ and IL-2 were measured by ELISA (Biolegend, Koblenz, Germany) in supernatants obtained after a 20 hour co-culture of T-cells with target cells (effector:target ratio=4:1).

BCMA RNA levels in OPM-2 = BCMA RNA levels in OPM-2 by qRT-PCR; format: cell-based, human; details: 50 nM ATRA, 48 hours, qPCR
Protocol: (§2) BCMA RNA levels in MM.1S (n=4) and OPM-2 (n=3) by quantitative reverse transcription PCR (qRT-PCR) assay was quantified after incubation with increasing doses of ATRA for 48 hours. Depicted are mean values+SD.
(§3) Total RNAs were extracted with RNeasy Mini Kit (Qiagen, Hilden, Germany) according to the manufacturer's protocol. Reverse transcription-quantitative polymerase chain reaction (RT-qPCR) analysis of BCMA was performed with 1 μg of total RNA and SuperScript™ II Reverse Transcriptase (Thermo Fisher Scientific, Inc Massachusetts). The quality and integrity of the RNA was verified by a Bioanalyzer 2100 (Agilent Technologies, Santa Clara, CA). The primer sequences used were as follows: BCMA forward primer, 5′-TGTTCTTCTAATACTCCTCCTCT-3′ (SEQ ID NO: 25) and reverse primer, 5′-AACTCGTCCTTTAATGGTTC-3′ (SEQ ID NO: 26). […] RT-qPCR was performed in a 7900HT Real-time PCR System (Thermo Fisher Scientific, Inc Massachusetts) using Quantitec SYBR green Kit (Qiagen, Hilden, Germany) in a 7900 HT Fast Real Time PCR System (Applied Biosystems, Foster City, CA). […] The threshold cycle for each sample was selected from the linear range and converted to a starting quantity by interpolation from a standard curve generated on the same plate for each set of primers. […]

[2] = system: BCMA CD4+ and CD8+ CAR T-cells; assay: Viability of BCMA-CAR T-cells after incubation with ATRA; format: cell-based, human; details: increasing doses of ATRA, 72 hours; 7-AAD- T cells
Protocol: Viability of BCMA CD4+ and CD8+ CAR T-cells after incubation with increasing doses of ATRA for 72 hours determined by flow cytometry. […] Data are presented as mean values+SD (n=3).

[3] = system: BCMA expression on NCI-H929; assay: BCMA expression on NCI-H929 by flow cytometry after ATRA treatment
BCMA expression on OPM-2 = BCMA expression on OPM-2 by flow cytometry after ATRA treatment; format: cell-based, human
Protocol: (§4) Flow cytometric analysis of BCMA-expression on MM.1S, OPM-2 and NCI-H929 cell lines that had been cultured in the absence or presence of 50 nM ATRA for 72 hours. […] 7-AAD was used to exclude dead cells from analysis.

MM.1S myeloma cells = assay: Cytolytic activity of CD8+ BCMA-CAR T-cells against pretreated MM.1S, bioluminescence-based assay; format: cell-based, human; details: MM.1S pretreated 72 hours with 100 nM ATRA and/or 0.01 uM GSI; 4 h co-incubation
Protocol: Myeloma cell lines were incubated with 100 nM ATRA and/or 0.01 uM GSI for 72 hours or were left untreated. Cytolytic activity of CD8^+ BCMA-CAR T-cells was determined in a bioluminescence-based assay after 4 h of co-incubation with target cells. Assay was performed in triplicate wells with 5,000 target cells per well. Data are presented as mean values+SD of n=4 independent experiments.
as §1

[4] = system: BCMA surface molecules on MM.1S cells; assay: BCMA molecule distribution on MM.1S cells by dSTORM; format: cell-based, human; details: vs untreated
From the text: Representative photographs of BCMA molecule distribution on untreated and ATRA-treated MM.1S cells visualized by direct stochastic optical reconstruction microscopy (dSTORM).

BCMA expression on MM.1S [5] = assay: BCMA expression on MM.1S from bone marrow of ATRA-treated NSG mice; format: in vivo; details: NSG/MM1.S; ATRA 30 mg/kg i.p. every day, 4 days; P=0.002
Protocol: NSG mice were inoculated with MM.1S cells. After twelve days, mice were i.p. injected with 30 mg/kg ATRA for 4 days. BCMA-expression on MM.1S cells obtained from bone marrow of untreated and ATRA-treated mice was analysed by flow cytometry.
The University of Wurzburg Institutional Animal Care and Use Committee approved all mouse experiments. Six- to eight-week old female NSG (NOD-scid IL2rynull) mice were obtained from Charles River and inoculated by tail vein injection with 2×10^6 MM.1S/ffluc_GFP at day 0 and randomly allocated to ATRA-treatment and control group. ATRA (Sigma Aldrich, Darmstadt, Germany) was formulated in corn oil and administered by intraperitoneal (i.p) injection (30 mg/kg) for four days, starting twelve days after tumor inoculation.
This encouraged experiments in a murine xenograft model of myeloma (NSG/MM1.S). In a first set of experiments, n=6 mice were inoculated with MM1.S cells (2×10^6 cells given i.v. by tail vein injection) for 12 days to establish systemic myeloma, and then administered a 4-day treatment course with either ATRA (n=3 mice; 30 mg/kg given i.p. every day) or solvent control (n=3 mice). The following day, mice were sacrificed, MM.1S myeloma cells were isolated from bone marrow and BCMA expression analyzed by flow cytometry. […] The in vivo upregulation of BCMA after GSI treatment was shown by Pont et. al. in 2019^40.

[6] = system: EGFRt_BCMA-CAR transgene expression of BCMA CD4+ and CD8+ CAR T-cells; assay: EGFRt_BCMA-CAR transgene expression of BCMA-CAR T-cells after incubation with ATRA; format: cell-based, human; details: increasing doses of ATRA, 72 hours; EGFRt+ T cells
Protocol: EGFRt_BCMA-CAR transgene expression of BCMA CD4+ and CD8+ CAR T-cells after incubation with increasing doses of ATRA for 72 hours determined by flow cytometry. […] Data are presented as mean values+SD (n=3).

[7] = system: BCMA expression on primary myeloma cells; assay: BCMA expression on primary myeloma cells by flow cytometry after ATRA treatment
BCMA expression on MM.1S [8] = assay: BCMA expression on MM.1S by flow cytometry after ATRA treatment; format: cell-based, human
Protocol: as §4

BCMA RNA levels in MM.1S = BCMA RNA levels in MM.1S by qRT-PCR; format: cell-based, human; details: 50 nM ATRA, 48 hours, qPCR
Protocol: as §2, §3

[9] = system: BCMA-CAR T-cells co-incubated with MM.1S; assay: Cytokine release of BCMA-CAR T-cells after stimulation with pretreated MM.1S, ELISA; format: cell-based, human; details: MM.1S pretreated 72 hours with 100 nM ATRA and/or 0.01 uM GSI, 20 hours co-incubation
Protocol: MM.1S were incubated with 100 nM ATRA and/or 0.01 uM GSI for 72 hours or were left untreated. Afterwards, BCMA-CAR T-cells were co-incubated with these target cells for 20 hours. Cytokine release of BCMA-CAR T-cells was determined in the supernatant by ELISA. Assay was performed in triplicate wells. Data are presented as mean values+SD of n=3 independent experiments.
as §1

[10] = deltaMFI at baseline normalized to 1, 72 hours

CC1=C(/C=C/C(C)=C/C=C/C(C)=C/C(=O)O)C(C)(C)CCC1 [ATRA, all-trans retinoic acid]
proliferative capacity of BCMA-CAR T-cells [1]: enhanced proliferative capacity | relative increase in BCMA transcripts (BCMA RNA levels in OPM-2): 2.1 fold | effect on viability of BCMA-CAR T-cells [2]: no negative effect | time for BCMA expression to return to baseline levels upon discontinuation of ATRA treatment [3]: ≤ 72 h | BCMA expression when ATRA treatment was recommenced ([3]; 72 hours after re-exposition): increased again with the same amplitude | BCMA expression, deltaMFI ([3]; ATRA (50 nM per FIG. 1) for 72 hours, untreated deltaMFI 9,883): 13,891 | relative increase in BCMA expression after ATRA treatment [3, 10]: 1.7 fold | time for BCMA expression to return to baseline levels upon discontinuation of ATRA treatment (BCMA expression on OPM-2): ≤ 72 h | BCMA expression when ATRA treatment was recommenced (BCMA expression on OPM-2; 72 hours after re-exposition): increased again with the same amplitude | BCMA expression, deltaMFI (BCMA expression on OPM-2; ATRA (50 nM per FIG. 1) for 72 hours, untreated deltaMFI 3,558): 7,358 | relative increase in BCMA expression after ATRA treatment (BCMA expression on OPM-2; [10]): 1.9 fold | cytolytic activity of BCMA-CAR T-cells against pretreated vs non-treated target cells (MM.1S myeloma cells): superior cytolysis | BCMA surface molecules by dSTORM after ATRA treatment [4]: increase of BCMA surface molecules | BCMA expression on MM.1S myeloma cells from bone marrow vs control mice (BCMA expression on MM.1S [5]): Significantly higher BCMA expression | effect on expression of the EGFRt_BCMA-CAR transgene [6]: did not diminish | BCMA expression once exposure to ATRA was discontinued ([7]; 100 nM ATRA, 24 hours after removal): declined to baseline levels | increase in deltaMFI for BCMA expression, average ([7]; 100 nM ATRA, 72 hours): 1.6 × | BCMA expression upon re-exposure to ATRA ([7]; 72 hours after re-exposition): increased again | BCMA expression by flow cytometry after ATRA ([7]; n=5 patients, 72 hours, 100 nM P=0.04, 50 nM P=0.006, 25 nM P=0.04): significant increase | time for BCMA expression to return to baseline levels upon discontinuation of ATRA treatment (BCMA expression on MM.1S [8]): ≤ 72 h | BCMA expression when ATRA treatment was recommenced (BCMA expression on MM.1S [8]; 72 hours after re-exposition): increased again with the same amplitude | BCMA expression, deltaMFI (BCMA expression on MM.1S [8]; ATRA (50 nM per FIG. 1) for 72 hours, untreated deltaMFI 1,098): 2,709 | relative increase in BCMA expression after ATRA treatment (BCMA expression on MM.1S [8]; [10]): 1.9 fold | relative increase in BCMA transcripts (BCMA RNA levels in MM.1S): 1.8 fold | cytokine release of BCMA-CAR T-cells [9]: enhanced
